According to ChEMBL document CHEMBL1156106 (J Med Chem, 2009):

Assays:
Rattus norvegicus [1] = assay: Effect on behavioural activity in rat assessed as cocaine-induced lever response at 2.5 mg/kg, ip pretreated with cocaine for 15 mins by drug-discrimination studies; format: functional; conditions: route intraperitoneal
Rattus norvegicus [2] = assay: Effect on behavioural activity in rat assessed as cocaine-induced lever response at 5 mg/kg, po pretreated with cocaine for 180 mins by drug-discrimination studies; format: functional
Rattus norvegicus [3] = assay: Effect on behavioural activity in rat assessed as cocaine-induced lever response at 2.5 mg/kg, po pretreated with cocaine for 45 mins by drug-discrimination studies; format: functional
Rattus norvegicus [4] = assay: Effect on behavioural activity in rat assessed as cocaine-induced lever response at 10 mg/kg, po pretreated with cocaine for 360 mins by drug-discrimination studies; format: functional
[5] = biological target: T1, Sodium-dependent serotonin transporter (Homo sapiens, UniProt P31645); assay: biochemical; format: cell-based, HEK293
Mus musculus [6] = assay: Antidepressant activity in ip dosed mouse assessed as time to reach peak stimulation of locomotor activity; format: functional
Rattus norvegicus [7] = assay: Effect on behavioural activity in rat assessed as cocaine-induced lever response at 5 mg/kg, po pretreated with cocaine for 45 mins by drug-discrimination studies; format: functional
Rattus norvegicus [8] = assay: Effect on behavioural activity in rat assessed as cocaine-induced lever response at 25 mg/kg, ip pretreated with cocaine for 15 mins by drug-discrimination studies; format: functional; conditions: route intraperitoneal
Rattus norvegicus [9] = assay: Effect on behavioural activity in ip dosed rat assessed as cocaine-induced lever response pretreated with cocaine by drug-discrimination studies; format: functional
Rattus norvegicus [10] = assay: Effect on behavioural activity in rat assessed as cocaine-induced lever response at 10 mg/kg, po pretreated with cocaine for 180 mins by drug-discrimination studies; format: functional
Rattus norvegicus [11] = assay: Effect on behavioural activity in po dosed rat assessed as cocaine-induced lever response pretreated with cocaine by drug-discrimination studies; format: functional
Rattus norvegicus [12] = assay: Effect on behavioural activity in rat assessed as cocaine-induced lever response at 5 mg/kg, ip pretreated with cocaine for 15 mins by drug-discrimination studies; format: functional; conditions: route intraperitoneal
Rattus norvegicus [13] = assay: Effect on behavioural activity in rat assessed as cocaine-induced lever response at 2.5 mg/kg, po pretreated with cocaine for 360 mins by drug-discrimination studies; format: functional
Rattus norvegicus [14] = assay: Effect on behavioural activity in rat assessed as cocaine-induced lever response at 5 mg/kg, po pretreated with cocaine for 360 mins by drug-discrimination studies; format: functional
Mus musculus [15] = assay: Antidepressant activity in ip dosed mouse assessed as stimulation of locomotor activity; format: functional
Mus musculus [16] = assay: Antidepressant activity in ip dosed mouse assessed as stimulation of locomotor activity relative to cocaine; format: functional
Rattus norvegicus [17] = assay: Effect on behavioural activity in rat assessed as cocaine-induced lever response at 2.5 mg/kg, po pretreated with cocaine for 180 mins by drug-discrimination studies; format: functional
Rattus norvegicus [18] = assay: Effect on behavioural activity in rat assessed as cocaine-induced lever response at 10 mg/kg, po pretreated with cocaine for 90 mins by drug-discrimination studies; format: functional
Mus musculus [19] = assay: Antidepressant activity in ip dosed mouse assessed as duration of locomotor activity; format: functional
Rattus norvegicus [20] = assay: Effect on behavioural activity in rat assessed as cocaine-induced lever response at 10 mg/kg, ip pretreated with cocaine for 15 mins by drug-discrimination studies; format: functional; conditions: route intraperitoneal
Rattus norvegicus [21] = assay: Effect on behavioural activity in rat assessed as cocaine-induced lever response at 2.5 mg/kg, po pretreated with cocaine for 90 mins by drug-discrimination studies; format: functional
Rattus norvegicus [22] = assay: Effect on behavioural activity in rat assessed as cocaine-induced lever response at 50 mg/kg, po pretreated with cocaine for 180 mins by drug-discrimination studies; format: functional
Rattus norvegicus [23] = assay: Effect on behavioural activity in rat assessed as cocaine-induced lever response at 50 mg/kg, po pretreated with cocaine for 45 mins by drug-discrimination studies; format: functional
Rattus norvegicus [24] = assay: Effect on behavioural activity in rat assessed as cocaine-induced lever response at 25 mg/kg, po pretreated with cocaine for 180 mins by drug-discrimination studies; format: functional
Rattus norvegicus [25] = assay: Effect on behavioural activity in rat assessed as cocaine-induced lever response at 25 mg/kg, po pretreated with cocaine for 45 mins by drug-discrimination studies; format: functional
Rattus norvegicus [26] = assay: Effect on behavioural activity in rat assessed as cocaine-induced lever response at 100 mg/kg, po pretreated with cocaine for 90 mins by drug-discrimination studies; format: functional
Rattus norvegicus [27] = assay: Effect on behavioural activity in rat assessed as cocaine-induced lever response at 100 mg/kg, po pretreated with cocaine for 360 mins by drug-discrimination studies; format: functional
[28] = biological target: Sodium-dependent noradrenaline transporter (Homo sapiens, UniProt P23975); assay: Displacement of [125I]RTI55 from cloned human NET expressed in HEK293 cells; format: cell-based
Rattus norvegicus [29] = assay: Effect on behavioural activity in rat assessed as cocaine-induced lever response at 25 mg/kg, po pretreated with cocaine for 90 mins by drug-discrimination studies; format: functional
Rattus norvegicus [30] = assay: Effect on behavioural activity in rat assessed as cocaine-induced lever response at 25 mg/kg, po pretreated with cocaine for 360 mins by drug-discrimination studies; format: functional
Rattus norvegicus [31] = assay: Effect on behavioural activity in rat assessed as cocaine-induced lever response at 100 mg/kg, po pretreated with cocaine for 180 mins by drug-discrimination studies; format: functional
Rattus norvegicus [32] = assay: Effect on behavioural activity in rat assessed as cocaine-induced lever response at 50 mg/kg, po pretreated with cocaine for 90 mins by drug-discrimination studies; format: functional
Rattus norvegicus [33] = assay: Effect on behavioural activity in rat assessed as cocaine-induced lever response at 5 mg/kg, po pretreated with cocaine for 90 mins by drug-discrimination studies; format: functional
Rattus norvegicus [34] = assay: Effect on behavioural activity in rat assessed as cocaine-induced lever response at 100 mg/kg, po pretreated with cocaine for 45 mins by drug-discrimination studies; format: functional
Rattus norvegicus [35] = assay: Effect on behavioural activity in rat assessed as cocaine-induced lever response at 10 mg/kg, po pretreated with cocaine for 45 mins by drug-discrimination studies; format: functional
Rattus norvegicus [36] = assay: Effect on behavioural activity in rat assessed as cocaine-induced lever response at 50 mg/kg, po pretreated with cocaine for 360 mins by drug-discrimination studies; format: functional
[37] = biological target: T1, Sodium-dependent serotonin transporter; assay: Inhibition of [3H]serotonin reuptake at human SERT expressed in HEK293 cells; format: cell-based
[38] = biological target: Sodium-dependent dopamine transporter (Homo sapiens, UniProt Q01959); assay: Displacement of [125I]RTI55 from cloned human DAT expressed in HEK293 cells; format: cell-based
Rattus norvegicus [39] = assay: Effect on behavioural activity in rat assessed as cocaine-induced lever response at 25 mg/kg, ip pretreated with cocaine for 30 mins by drug-discrimination studies; format: functional; conditions: route intraperitoneal
Rattus norvegicus [40] = assay: Effect on behavioural activity in rat assessed as cocaine-induced lever response at 5 mg/kg, ip pretreated with cocaine for 30 mins by drug-discrimination studies; format: functional; conditions: route intraperitoneal
Rattus norvegicus [41] = assay: Effect on behavioural activity in rat assessed as cocaine-induced lever response at 10 mg/kg, ip pretreated with cocaine for 30 mins by drug-discrimination studies; format: functional; conditions: route intraperitoneal
Rattus norvegicus [42] = assay: Effect on behavioural activity in rat assessed as cocaine-induced lever response at 2.5 mg/kg, ip pretreated with cocaine for 30 mins by drug-discrimination studies; format: functional; conditions: route intraperitoneal

T1 sequence (P31645 whole entry): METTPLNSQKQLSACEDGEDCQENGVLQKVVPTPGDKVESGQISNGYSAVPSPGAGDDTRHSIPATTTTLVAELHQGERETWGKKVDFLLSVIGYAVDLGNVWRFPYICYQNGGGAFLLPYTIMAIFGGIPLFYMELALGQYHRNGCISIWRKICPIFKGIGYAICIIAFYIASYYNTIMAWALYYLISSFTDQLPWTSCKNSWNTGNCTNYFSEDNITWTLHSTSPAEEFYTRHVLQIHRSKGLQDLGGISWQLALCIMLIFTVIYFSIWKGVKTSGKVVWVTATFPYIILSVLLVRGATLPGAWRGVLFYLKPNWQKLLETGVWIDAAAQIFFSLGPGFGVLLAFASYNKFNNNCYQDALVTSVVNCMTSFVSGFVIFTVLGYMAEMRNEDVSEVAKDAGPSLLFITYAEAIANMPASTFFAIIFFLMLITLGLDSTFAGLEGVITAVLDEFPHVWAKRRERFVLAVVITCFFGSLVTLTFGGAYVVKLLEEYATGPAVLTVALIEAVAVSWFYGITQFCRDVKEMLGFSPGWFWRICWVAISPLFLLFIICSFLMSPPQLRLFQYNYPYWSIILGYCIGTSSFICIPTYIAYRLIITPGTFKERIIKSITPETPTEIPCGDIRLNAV
Sequence of Sodium-dependent noradrenaline transporter (P23975 whole entry): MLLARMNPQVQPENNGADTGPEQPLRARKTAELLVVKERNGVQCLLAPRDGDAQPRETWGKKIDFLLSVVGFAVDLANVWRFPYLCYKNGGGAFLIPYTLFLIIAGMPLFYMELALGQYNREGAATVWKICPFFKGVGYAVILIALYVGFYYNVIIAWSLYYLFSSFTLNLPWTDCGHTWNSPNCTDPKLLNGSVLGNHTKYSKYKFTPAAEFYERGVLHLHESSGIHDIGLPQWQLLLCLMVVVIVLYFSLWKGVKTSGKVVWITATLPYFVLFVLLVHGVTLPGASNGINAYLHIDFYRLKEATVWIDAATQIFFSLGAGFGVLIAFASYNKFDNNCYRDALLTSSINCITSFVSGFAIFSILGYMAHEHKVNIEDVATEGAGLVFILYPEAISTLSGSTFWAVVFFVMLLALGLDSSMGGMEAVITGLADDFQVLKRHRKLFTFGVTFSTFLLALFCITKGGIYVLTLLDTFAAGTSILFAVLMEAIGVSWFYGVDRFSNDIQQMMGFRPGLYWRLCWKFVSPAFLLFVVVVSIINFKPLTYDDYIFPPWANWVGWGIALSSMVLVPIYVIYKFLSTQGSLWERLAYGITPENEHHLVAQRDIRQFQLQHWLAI
Sequence of Sodium-dependent dopamine transporter (Q01959 whole entry): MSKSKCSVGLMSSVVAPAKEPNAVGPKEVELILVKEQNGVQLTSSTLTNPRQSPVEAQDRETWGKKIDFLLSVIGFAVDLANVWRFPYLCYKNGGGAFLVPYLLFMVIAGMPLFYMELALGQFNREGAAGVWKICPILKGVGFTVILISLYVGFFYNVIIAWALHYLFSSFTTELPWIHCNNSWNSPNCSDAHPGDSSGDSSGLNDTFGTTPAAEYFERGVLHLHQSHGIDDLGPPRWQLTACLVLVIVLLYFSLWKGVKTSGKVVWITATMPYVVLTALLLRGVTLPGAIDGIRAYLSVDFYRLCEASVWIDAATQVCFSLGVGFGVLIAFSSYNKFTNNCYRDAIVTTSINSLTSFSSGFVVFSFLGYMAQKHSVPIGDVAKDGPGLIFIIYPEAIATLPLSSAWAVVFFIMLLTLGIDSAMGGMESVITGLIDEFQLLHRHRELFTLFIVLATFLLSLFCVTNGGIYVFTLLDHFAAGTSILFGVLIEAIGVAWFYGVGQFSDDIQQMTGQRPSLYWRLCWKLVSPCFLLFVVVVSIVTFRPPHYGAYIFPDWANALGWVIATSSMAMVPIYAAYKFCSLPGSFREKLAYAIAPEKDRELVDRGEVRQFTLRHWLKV

Row | SMILES | Activity (Rattus norvegicus [1]) | Activity (Rattus norvegicus [2]) | Ki [5] | Time to peak locomotor stimulation (Mus musculus [6]) | Activity (Rattus norvegicus [7]) | Activity (Rattus norvegicus [8]) | ED50 (Rattus norvegicus [9]) | Activity (Rattus norvegicus [10]) | ED50 (Rattus norvegicus [11]) | Activity (Rattus norvegicus [12]) | Activity (Rattus norvegicus [14]) | ED50 (Mus musculus [15]) | Activity (Mus musculus [16]) | Activity (Rattus norvegicus [18]) | Time (Mus musculus [19]) | Ki [28] | Ki [38] | further results
1 | CC(C(=O)c1cccc(Cl)c1)N(C)C (configuration not stated) | 0% | 0% | > 10 µM | 90 min | 38% | 100% | 5.9 mg/kg | 33% | 5.3 mg/kg | 83.3% | 0% | 9.3 mg/kg | 64% | 100% | 180 min | – | – | Activity (Rattus norvegicus [3]): 19%; Activity (Rattus norvegicus [4]): 18%; Activity (Rattus norvegicus [13]): 0%; Activity (Rattus norvegicus [17]): 33%; Activity (Rattus norvegicus [20]): 83.2%; Activity (Rattus norvegicus [21]): 0%
2 | CC(NC(C)(C)C)C(=O)c1cccc(F)c1 (configuration not stated) | 17.6% | 0% | > 10 µM | 0 min | 17% | 100% | 11.6 mg/kg | 33% | 25.3 mg/kg | 0% | 0% | 17.5 mg/kg | 80% | 0% | 150 min | > 10 µM | – | Activity (Rattus norvegicus [22]): 18%; Activity (Rattus norvegicus [23]): 67%; Activity (Rattus norvegicus [24]): 0%; Activity (Rattus norvegicus [25]): 49%; Activity (Rattus norvegicus [26]): 75%; Activity (Rattus norvegicus [27]): 50%; Activity (Rattus norvegicus [29]): 16%; Activity (Rattus norvegicus [30]): 0%; Activity (Rattus norvegicus [31]): 83%; Activity (Rattus norvegicus [32]): 33%; Activity (Rattus norvegicus [33]): 0%; Activity (Rattus norvegicus [20]): 50.2%; Activity (Rattus norvegicus [34]): 95%; Activity (Rattus norvegicus [35]): 17%; Activity (Rattus norvegicus [36]): 0%
3 | COC(=O)[C@H]1[C@@H](OC(=O)c2ccccc2)C[C@@H]2CC[C@H]1N2C [COCAINE] | – | – | – | 0 min | – | – | 5.9 mg/kg | – | – | – | – | 7.8 mg/kg | – | – | 40 min | – | – | –
4 | CC(NC(C)(C)C)C(O)c1ccccc1 (racemic) | – | – | 4 µM | 150 min | – | – | – | – | – | – | – | – | 41% | – | 390 min | > 10 µM | > 10 µM | IC50 [37]: 1.24 µM
5 | CC(NC(C)(C)C)C(=O)c1cccs1 (configuration not stated) | – | – | > 10 µM | – | – | – | – | – | – | – | – | – | – | – | – | > 10 µM | > 10 µM | –
6 | CCCNC(C)C(=O)c1cccc(Cl)c1 (configuration not stated) | – | – | > 10 µM | – | – | – | – | – | – | – | – | – | – | – | – | > 10 µM | > 10 µM | –
7 | CC(NC(C)(C)C)C(=O)c1cc(Cl)cc(Cl)c1 (configuration not stated) | – | – | > 10 µM | – | – | – | – | – | – | – | – | – | – | – | – | > 10 µM | > 10 µM | –
8 | CCC(NC(C)(C)C)C(=O)c1cccc(Cl)c1 (configuration not stated) | 0.6% | – | – | 0 min | – | 100% | 12.2 mg/kg | – | – | 33.4% | – | 18.6 mg/kg | 62% | – | 360 min | – | – | –
9 | CCCCC(NC(C)(C)C)C(=O)c1cccc(Cl)c1 (configuration not stated) | – | 26% | > 10 µM | 0 min | 17% | – | 10 mg/kg | 29% | 46.9 mg/kg | – | 0% | 10.2 mg/kg | 136% | 0% | 40 min | – | – | Activity (Rattus norvegicus [22]): 17%; Activity (Rattus norvegicus [23]): 83%; Activity (Rattus norvegicus [39]): 100%; Activity (Rattus norvegicus [24]): 0%; Activity (Rattus norvegicus [4]): 0%; Activity (Rattus norvegicus [25]): 0%; Activity (Rattus norvegicus [29]): 0%; Activity (Rattus norvegicus [30]): 0%; Activity (Rattus norvegicus [40]): 17.2%; Activity (Rattus norvegicus [32]): 17%; Activity (Rattus norvegicus [41]): 66.6%; Activity (Rattus norvegicus [33]): 0%; Activity (Rattus norvegicus [35]): 0%; Activity (Rattus norvegicus [36]): 0%; Activity (Rattus norvegicus [42]): 0%
